Measured values published in publication PMC6003898 (EJNMMI Research, 2018).

How the values were obtained:
[1] = test system: human U87-MG glioblastoma tumor xenografts in the flank; experiment: in vivo; settings: mouse
Protocol: (§1) Tumor xenografts were obtained in mice flanks as described previously. Six-week-old female immunodeficient (nu/nu) NMRI mice, weighing 20–25 g, were obtained from Janvier Laboratories (Le Genest Saint Isle, France) and housed in ventilated cages including filter tops with an ad libitum access to food and water. Two xenograft tumors were induced in all mice through subcutaneous flank injections of 2.10^6 of human U87-MG cells. Tumor growth was assessed twice weekly, according to tumor volume (in mm^3) calculated with the formula d2 × D/2, where d and D represent the shortest and longest diameters, respectively, calculated in millimeter with a caliper (decrescent PRC, EDVC, France).
(§2) At the end of the 2nd PET recording, the animals were sacrificed by inhalation of 5% of isoflurane followed by cervical dislocation. Tumors were subsequently surgically removed for further histopathological analysis.
(§3) List-mode acquisitions of 120 min durations were initiated a few seconds prior to tracer injection, and the acquired PET data were subsequently reconstructed in 27 consecutive frames (i.e., 5 frames of 120-s duration followed by 22 frames of 5-min duration) using the ordered-subsets expectation maximization 3D algorithm (OSEM3D, 4 iterations, 16 subsets, zoom 1) together with scatter and attenuation corrections based on transmission source measurement. The final voxel size was 0.8 × 0.8 × 0.9 mm^3.
(§4) Tumor and of various organ activities were determined through SUV mean values within 3D regions of interests (ROI), which were drawn with a dedicated software (Inveon Research Workplace 4.1, Siemens®, Knoxville, USA) on the fusion images encompassing the entire 120-min recording period. Spheroid ROIs were placed inside the liver, brain, and kidney regions with the ROI limits approximating the organ limits as close as possible. Tumor and heart ROIs were obtained with isocontour ROIs and threshold limits of 50 and 80%, respectively, of the maximal voxel value.

[2] = test system: human U87-MG glioblastoma tumor xenografts in the brain; experiment: in vivo; settings: rat
From the text: (§5) Briefly, 8-week-old athymic male nude rats (180–220 g), (Hsd: RH-Foxn1rnu; Envigo, Gannat, France), were anesthetized with a mixture of air and 1.5–2% isoflurane and were placed in a Kopf stereotactic frame (900 M Kopf Instruments, Tujunga, CA). After a scalp incision, a burr hole was drilled 0.5 mm anterior and 2.7 mm lateral to bregma and a skull anchor (Patent N° 11 55596) was affixed.

[3] = test system: human U87-MG glioblastoma tumor xenografts in the flank; settings: mouse, iv
Protocol: Animals were sacrificed by cervical dislocation 60 min after injection. Various tissues (tumor, liver, heart, brain, and kidney) were dissected, weighed, and counted in a calibrated gamma counter (Wizard, PerkinElmer, France). The results were expressed as percentages of injected dose and per gram of tissue (% ID/g).

[4] = in vivo; settings: female, NMRI nu/nu, mouse, iv, 6 MBq, total radioactivity
Protocol: as §1, §2, §3, §4

[5] = in vivo; settings: male, athymic nude (Hsd: RH-Foxn1rnu), rat, total radioactivity
From the text: as §5

SMILES	course of tumor uptake with time [1]	route of tracer clearance [1]	tumor-to-normal brain ratio (PET imaging) [1]	mean tumor activity (SUVmean) ([1]; iv)	tumor activity relative to contralateral normal brain [2]	tumor-to-normal brain ratio (ex vivo biodistribution data, gamma counter) [3]	SUV at 1 h [4]	SUV ([5]; SUVmean_ contralateral normal brain)	SUV ([5]; SUVmean_Tumor)
OC[C@H]1OC(O)[C@H](F)[C@@H](O)[C@@H]1O (stereo partly shown) [^18F-FDG, ^18F-fluorodeoxyglucose]	progressive enhancement	primary renal route of tracer clearance	1.5 ± 0.37	1.19 ± 0.33	1.62 ± 0.15	0.61 ± 0.2 %ID/g			
N=C(N)NCCC[C@@H]1NC(=O)[C@H](CCCCNC(=O)CCC(C(=O)O)N2CCN(CC(=O)O)CCN(CC(=O)O)CC2)NC(=O)[C@@H](Cc2ccc(O)cc2)NC(=O)[C@H](CC(=O)O)NC(=O)CNC1=O (stereo partly shown) [^68Ga-NODAGA-RGD, metal not drawn]		primary renal route of tracer clearance					0.23 ± 0.04 SUV	0.1 SUV	0.5 SUV
